Structures can show the parent of a compound that is named as a salt.
What was measured:
anesthetised dogs = test: Haemodynamic effects on anesthetised dogs; format: in vivo, dogs (labrador/harrier cross); conditions: dogs
Method: Haemodynamic effects of the compounds according to the invention on anesthetised pigs or dogs
The dogs, weighing between 16 and 26 kg, are the progeny of a labrador/harrier cross.
In the case of dogs the anesthesia is induced by sodium pentobarbitol (45 mg/jg i.v.) and maintained with an i.v. perfusion (flow rate of 8 mg/kg/h).
The pigs or dogs are placed under artificial respiration in ambient air. Analysis of the blood gases (pO2, pCO2) is carried out at regular intervals and oxygen can be supplied via the respirator, if necessary.
The haemodynamic parameters recorded include the left ventricular pressure (LVP; Millar PC350 Tip catheter inserted via the carotid artery), systemic blood pressure (BPs, BPd; full catheter in a femoral artery), the end pressure of the left ventricular diastole (LVEDP), the ventricular contractility (LVPdp/dtmax) and the heart rate (HR).
Following an equilibration period of the order of 45 minutes, the compounds studied are administered intraduodenally (i.d.) or intraveinously (i.v.) to several animals (1 to 4). The haemodynamic variables are recorded continuously for 1 to 3 hours, as a function of the period of action of the compound.
The effects of the compounds studied are shown as the absolute difference with respect to the base value (bv) measured before administration of the compounds and are shown in Table VII (a,b,c).
An antianginal activity is estimated by a fall in the BPs and the LVEDP (fall in venous return).

thoracic aorta = test: Vasorelaxant effect on isolated vessels (rat thoracic aorta rings without endothelium, precontracted with noradrenalin); set-up: species or system Wistar rats; conditions: for Emax: Rattus norvegicus, maximum inhibition of noradrenalin effect, 10^-8 to 10^-4 M substance, read-out: Maximum Relaxation; for IC50: rat aorta, 10^-7 M noradrenalin contraction
Method: Vasorelaxant effect of the compounds according to the invention on isolated vessels.
Adult Wistar rats weighing between 250 and 350 g are anaesthetised by intraperitoneal injection of sodium pentobarbital (30 mg/kg). The thoracic aorta is rapidly removed and placed in a refrigerated and oxygenated solution of bicarbonate buffer of the Krebs-Ringer type (composition [mM]: NaCl, 118; KCl, 4.7; CaCl2, 2.5; MgSO4, 1.2; KH2 PO4, 1.2; NaHCO3, 25.0; disodium calcium salt of EDTA, 0.026; glucose 11.1). The aorta is dissected with the aim of removing the connective tissue and then cut into 6 rings (length 5-10 mm). The endothelium is removed by moderate abrasion of the intimal surface of the aortic segments with the aid of a pair of tweezers. These segments are then placed between two hooks in an isolated organ cell filled with 25 ml of bicarbonate buffer (pH 7.4), thermostat-controlled at 37° C. and oxygenated with the aid of a 95% O2 /5% CO2 mixture (pH 7.4). One of the hooks is fixed to a fixed point, while the second is connected to a transducer with the aim of measuring the variations in isometric voltage (expressed in grams). After an equilibration period of 30 min., the segments are progressively withdrawn so as to attain the level of base voltage for which the contractor response to noradrenalin (10^-7 M) is maximum (optimum voltage; average 2 g). The absence of endothelium is verified by addition of a single concentration of acetylcholine (10^-6 M), after precontraction of the vessels by noradrenalin (10^-7 M). The integrity of the vascular smooth muscle is also verified by adding a single concentration of a vasodilator whose response is independent of the presence of the endothelium, SIN-1 (10^-5 M). After this initial procedure, the aortas are washed, equilibrated for a period of 30 min and then recontracted (10^-7 M noradrenalin). The relaxant effect of the substance to be tested is then evaluated by adding increasing concentrations of this substance (from 10^-8 to 10^-4 M). The maximum inhibition of the concentration caused by noradrenalin (expressed as a percentage) is then calculated ("maximum relaxation"). When this maximum relaxation is greater than 50%, the concentration of substance tested producing a 50% inhibition of the maximum contraction (IC50) is calculated. Table V below collates the IC50 and the maximum relaxation percentages for the various compounds tested.

Row | Compound | IC50 (thoracic aorta) | BPs (min), period of action (anesthetised dogs; 3 mg/kg i.d.) | BPs, difference to base value (anesthetised dogs; 3 mg/kg i.d.) | LVEDP (min), period of action (anesthetised dogs; 3 mg/kg i.d.) | LVEDP, difference to base value (anesthetised dogs; 3 mg/kg i.d.) | Emax (thoracic aorta) | BPs (min), period of action (anesthetised dogs; 3 mg/kg i.v.) | BPs, difference to base value (anesthetised dogs; 3 mg/kg i.v.) | LVEDP (min), period of action (anesthetised dogs; 3 mg/kg i.v.) | LVEDP, difference to base value (anesthetised dogs; 3 mg/kg i.v.) | BPs (min), period of action (anesthetised dogs; 10 mg/kg i.v.) | BPs, difference to base value (anesthetised dogs; 10 mg/kg i.v.) | LVEDP (min), period of action (anesthetised dogs; 10 mg/kg i.v.) | LVEDP, difference to base value (anesthetised dogs; 10 mg/kg i.v.)
1 | CSCC[C@H](NC(=O)[C@@H]1CSCN1C(=O)OC(C)(C)C)C(=O)N[C@H]1CO[C@H]2[C@@H]1OC[C@@H]2O[N+](=O)[O-] [Compound 67, 5-[[2-[[(3-t-butoxycarbonyl-4-L-thiazolidinyl)carbonyl]amino]-1-((2S)-2-(2'-thiomethyl)-ethyl)-oxoethyl]amino]-5-deoxy-2-O-nitro-1,4:3,6-dianhydro-L-iditol] | 9 µM | > 90 min | -15 mmHg | > 90 min | -1,5 mmHg | 100% | – | – | – | – | – | – | – | –
2 | O=C(N[C@H]1CO[C@H]2[C@@H]1OC[C@@H]2O[N+](=O)[O-])[C@@H]1CCCN1 [Compound 14, L-Proline amide of 5-amino-5-deoxy-2-O-nitro-1,4:3,6-dianhydro-L-iditol monohydrochloride] | 14 µM | – | – | – | – | 98% | > 90 min | -10 mmHg | > 90 min | -2,0 mmHg | – | – | – | –
3 | CC(C)(C)OC(=O)N1CSC[C@H]1C(=O)O[C@@H]1CO[C@H]2[C@@H]1OC[C@@H]2O[N+](=O)[O-] [Compound 24, 5-O-[(3-t-Butoxycarbonyl-4-L-thiazolidinyl)carbonyl]-2-O-nitro-1,4:3,6-dianhydro-D-glucitol] | 20 µM | – | – | – | – | 100% | > 30 min | -10 mmHg | 10 min | 1,0 mmHg | – | – | – | –
4 | O=C(N[C@H]1CO[C@H]2[C@@H]1OC[C@H]2O[N+](=O)[O-])c1ccccc1SCc1ccccc1 [Compound 45] | – | – | – | – | – | – | > 120 min | -10 mmHg | 0 min | 0,0 mmHg | – | – | – | –
5 | CSCC[C@H](NC(=O)OC(C)(C)C)C(=O)N[C@H]1CO[C@H]2[C@@H]1OC[C@@H]2O[N+](=O)[O-] [Compound 37, N-[(t-Butoxy)carbonyl]-L-methionine amide of 5-amino-5-deoxy-2-O-nitro-1,4:3,6-dianhydro-L-iditol] | 13 µM | – | – | – | – | 100% | – | – | – | – | > 90 min | -25 mmHg | 30 min | -2,0 mmHg

Continued, in another order:

Row | IC50 (thoracic aorta) | Compound | BPs (min), period of action (anesthetised dogs; 3 mg/kg i.d.) | BPs, difference to base value (anesthetised dogs; 3 mg/kg i.d.) | LVEDP (min), period of action (anesthetised dogs; 3 mg/kg i.d.) | LVEDP, difference to base value (anesthetised dogs; 3 mg/kg i.d.) | Emax (thoracic aorta) | BPs (min), period of action (anesthetised dogs; 3 mg/kg i.v.) | BPs, difference to base value (anesthetised dogs; 3 mg/kg i.v.) | LVEDP (min), period of action (anesthetised dogs; 3 mg/kg i.v.) | LVEDP, difference to base value (anesthetised dogs; 3 mg/kg i.v.) | BPs (min), period of action (anesthetised dogs; 10 mg/kg i.v.) | BPs, difference to base value (anesthetised dogs; 10 mg/kg i.v.) | LVEDP (min), period of action (anesthetised dogs; 10 mg/kg i.v.) | LVEDP, difference to base value (anesthetised dogs; 10 mg/kg i.v.)
6 | 100 µM | NCC(=O)O[C@H]1CO[C@H]2[C@@H]1OC[C@H]2O[N+](=O)[O-] [Compound 2, Glycine ester of 5-O-nitro-1,4:3,6-dianhydro-D-glucitol monohydrochloride] | – | – | – | – | 52% | > 120 min | -10 mmHg | > 120 min | -1,0 mmHg | – | – | – | –
7 | > 100 µM | NCC(=O)N[C@H]1CO[C@H]2[C@@H]1OC[C@H]2O[N+](=O)[O-] [Compound 16, Glycine amide of 2-amino-2-deoxy-5-O-nitro-1,4:3,6-dianhydro-D-glucitol monohydrochloride] | – | – | – | – | 41% | – | – | – | – | > 30 min | -5 mmHg | > 30 min | -1,0 mmHg
8 | 100 µM | CC(=O)NCSC[C@H](N)C(=O)O[C@H]1CO[C@H]2[C@@H]1OC[C@H]2O[N+](=O)[O-] [Compound 21, S-[(Acetylamino)methyl]-L-cysteine ester of 5-O-nitro-1,4:3,6-dianhydro-D-glucitol monohydrochloride] | > 60 min | -5 mmHg | > 60 min | -2,0 mmHg | 31% | – | – | – | – | – | – | – | –

Source: patent US5591758A, “Organic nitrates, processes for their preparation and their use in the treatment of cardiovascular diseases” (Laboratoires Hoechst, SA, priority 1991, dated 1997)
